Experiment [1] deals with T1, FAM86A (Homo sapiens, UniProt Q96G04, I256Y/M257Y/E296Y).
T1 construct: gene EEF2KMT; full-length, surface-entropy-reduction triple mutant; N-terminal His6-MBP tag removed by TEV; E. coli BL21(DE3) RIL; residues 1-5 and 127-133 not traced
T1 sequence (Q96G04 1-330 I256Y/M257Y/E296Y): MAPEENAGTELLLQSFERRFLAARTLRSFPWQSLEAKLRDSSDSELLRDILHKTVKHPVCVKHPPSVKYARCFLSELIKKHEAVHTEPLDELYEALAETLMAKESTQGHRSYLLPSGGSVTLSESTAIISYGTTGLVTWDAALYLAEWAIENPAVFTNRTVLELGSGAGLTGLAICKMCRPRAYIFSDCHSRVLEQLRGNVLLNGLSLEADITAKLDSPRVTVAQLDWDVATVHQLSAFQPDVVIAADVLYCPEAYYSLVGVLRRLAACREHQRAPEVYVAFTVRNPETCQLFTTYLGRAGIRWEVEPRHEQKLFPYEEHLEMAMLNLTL
Kind of experiment: X-ray crystal structure, […] A. The following applies: co-crystallised with 1 mM SAH, ammonium citrate pH 7.0, PEG 3350, 5 mM TCEP, 12 C; SAM-binding site of MTase domain.

Experiment [2] addresses T2, FAM86A (Homo sapiens, UniProt Q96G04).
T2 construct: gene EEF2KMT; full-length; E. coli BL21
T2 sequence (Q96G04 1-330): T1 sequence (Q96G04 1-330 I256Y/M257Y/E296Y) with Y256I, Y257M, Y296E
As to the kind of experiment: in vitro methylation, autoradiography. In kind it is biochemical. To be noted: labelled compound; methyl donor; co-substrate recombinant human EEF2 (Lys525); Tris-HCl pH 8.0, 20 mM KCl, 5 mM MgCl2, 10% glycerol, 30 C overnight. As for the experimental part: in vitro methylation, autoradiography on FA[…] | incubating recombinant, purified FA[…] with recombinant, purified EEF2 in the presence of radiolabeled SAM

For experiment [3], the target named is T3, FAM86A (Homo sapiens, UniProt Q96G04, A97R).
T3 construct: gene EEF2KMT; full-length; E. coli BL21
T3 sequence (Q96G04 1-330 A97R): T1 sequence (Q96G04 1-330 I256Y/M257Y/E296Y) with A97R, Y256I, Y257M, Y296E
As to the kind of experiment: in vitro methylation, autoradiography. In kind it is biochemical. To be noted: labelled compound; methyl donor; co-substrate recombinant human EEF2 (Lys525); Tris-HCl pH 8.0, 20 mM KCl, 5 mM MgCl2, 10% glycerol, 30 C overnight.

Where a chain is given by its changes, count along the chain named.

With `Nc1ncnc2c1ncn2[C@@H]1O[C@H](CSCC[C@H](N)C(=O)O)[C@@H](O)[C@H]1O` [SAH, S-adenosyl homocysteine], in experiment [1], the “X-ray crystal structure, 3.3 A” value is reported as “structure determination of full-length FAM86A in complex with cofactor–by-product S-adenosyl homocysteine (SAH)”.
Consider `C[S+](CC[C@H](N)C(=O)O)C[C@H]1O[C@@H](n2cnc3c(N)ncnc32)[C@H](O)[C@@H]1O` (stereo partly drawn) [SAM, S-adenosyl methionine], for which the “in vitro methylation, autoradiography” value in experiment [2] is “incubating recombinant, purified FAM86A with recombinant, purified EEF2 in the presence of radiolabeled SAM”; in experiment [3], “the activity of purified FAM86A (A97R) on purified EEF2 was similar to that of wildtype”.

These data come from paper PMC10285254, “The FAM86 domain of FAM86A confers substrate specificity to promote EEF2-Lys525 methylation” (The Journal of Biological Chemistry, 2023).
